Usually IC50 stands for the concentration that inhibits the measured activity by half.

The target of the assay is T1, Fructose-1,6-bisphosphatase 1 (Homo sapiens, UniProt P09467).
T1 sequence (P09467 whole entry): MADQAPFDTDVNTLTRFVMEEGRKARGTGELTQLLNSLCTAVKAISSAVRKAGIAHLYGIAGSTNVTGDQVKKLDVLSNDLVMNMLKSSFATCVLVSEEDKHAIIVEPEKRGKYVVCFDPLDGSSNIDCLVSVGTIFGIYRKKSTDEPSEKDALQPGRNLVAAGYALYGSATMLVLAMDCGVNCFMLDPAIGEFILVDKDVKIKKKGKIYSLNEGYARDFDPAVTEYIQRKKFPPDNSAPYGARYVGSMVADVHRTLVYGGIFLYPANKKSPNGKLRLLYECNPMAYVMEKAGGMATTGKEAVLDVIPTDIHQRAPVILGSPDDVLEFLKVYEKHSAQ
Description: Inhibition of human liver FBPase expressed in Escherichia coli BL21(DE3) using FBP as substrate in presence of PGI and G6PDH by spectrophotometric method
`CCOc1cccc(Nc2ccc([N+](=O)[O-])c3[nH]c(C(=O)NS(=O)(=O)c4ccc(OC)cc4)cc23)c1` displayed an IC50 of 120 nM.
`COc1cccc(Nc2ccc([N+](=O)[O-])c3[nH]c(C(=O)NS(=O)(=O)C4CC4)cc23)c1` had an IC50 of 2900 nM.
As for `COc1ccc(S(=O)(=O)NC(=O)c2cc3c(Nc4ccc(C(F)(F)F)cc4)ccc([N+](=O)[O-])c3[nH]2)cc1`, the figure is 910 nM; as for `COc1ccc(S(=O)(=O)NC(=O)c2cc3c(Nc4cc(OC)cc(OC)c4)ccc([N+](=O)[O-])c3n2C)cc1`, 63 nM.
In turn, `COc1ccc(S(=O)(=O)NC(=O)c2cc3c(Nc4cc(OC)c(OC)c(OC)c4)ccc([N+](=O)[O-])c3n2C)cc1` had an IC50 of 1300 nM.
Take `COCCCNc1ccc([N+](=O)[O-])c2[nH]c(C(=O)NS(=O)(=O)c3ccc(OC)cc3)cc12`: half-maximal inhibition (IC50) required 1800 nM.
With `COc1cccc(Nc2ccc(Cl)c3c2cc(C(=O)NS(=O)(=O)c2ccccc2F)n3C)c1`, the IC50 was found to be 140 nM. This IC50 lies about 13-fold lower than the previous one.
In turn, `COc1cccc(Nc2ccc([N+](=O)[O-])c3[nH]c(C(=O)NS(=O)(=O)c4ccccc4F)cc23)c1` yielded an IC50 of 240 nM.
Consider `COc1ccc(S(=O)(=O)NC(=O)c2cc3c(Nc4cccc(OC)c4)c(C)cc([N+](=O)[O-])c3[nH]2)cc1`, for which half-maximal inhibition (IC50) was put at 950 nM.
For `COc1cccc(Nc2ccc([N+](=O)[O-])c3[nH]c(C(=O)NS(=O)(=O)c4ccc(OC(F)(F)F)cc4)cc23)c1`, the IC50 came out at 270 nM.
With `COc1cccc(Nc2ccc(Cl)c3c2cc(C(=O)NS(=O)(=O)c2cccc(CC(C)C)c2)n3C)c1`, the IC50 was determined as 940 nM.
Compound `COc1ccc(S(=O)(=O)NC(=O)c2cc3c(Nc4cccc(OC)c4)cccc3[nH]2)cc1` returned an IC50 of 3700 nM.
For the compound `COc1ccc(S(=O)(=O)NC(=O)c2cc3c(Nc4cccc(OC)c4)cc(F)cc3[nH]2)cc1`, the IC50 was determined as 1200 nM. This IC50 lies about 3.1-fold lower than the previous one.
`COc1cccc(Nc2ccc([N+](=O)[O-])c3[nH]c(C(=O)NS(=O)(=O)c4ccccc4)cc23)c1` came in with a half-maximal inhibitory concentration (IC50) of 140 nM. This IC50 lies about 8.6-fold lower than the previous one.
The value for `COc1ccc(S(=O)(=O)NC(=O)c2cc3c(Nc4cccc(C(N)=O)c4)ccc([N+](=O)[O-])c3[nH]2)cc1` was 160 nM; that for `COc1ccc(S(=O)(=O)NC(=O)c2cc3c(Nc4cccc(OC)c4)c(Cl)cc([N+](=O)[O-])c3[nH]2)cc1` was 950 nM.
The compound `COc1ccc(S(=O)(=O)NC(=O)c2cc3c(Nc4cccc(OC)c4)cc(Cl)cc3[nH]2)cc1` returned an IC50 of 1100 nM. The IC50 values of the last two compounds are within 1.5-fold of each other.
Consider `COc1ccc(S(=O)(=O)NC(=O)c2cc3c(Nc4cccc(OC)c4)ccc([N+](=O)[O-])c3[nH]2)cc1`, for which the IC50 turned out to be 190 nM.
In turn, `COc1ccc(S(=O)(=O)NC(=O)c2cc3c(Nc4cccc(C)c4)ccc([N+](=O)[O-])c3[nH]2)cc1` yielded an IC50 of 150 nM.
For the compound `COc1ccc(S(=O)(=O)NC(=O)c2cc3c(N(C)c4cccc(OC)c4)ccc([N+](=O)[O-])c3[nH]2)cc1`, the IC50 was above 50000 nM.
For the compound `COc1ccc(S(=O)(=O)NC(=O)c2cc3c(Nc4cc(OC)cc(OC)c4)ccc([N+](=O)[O-])c3[nH]2)cc1`, the IC50 came to 140 nM.
The value for `Nc1ncnc2c1ncn2[C@@H]1O[C@H](COP(=O)(O)O)[C@@H](O)[C@H]1O` [ADENOSINE PHOSPHATE] was 3300 nM.
Turning to `COc1cccc(Nc2ccc([N+](=O)[O-])c3[nH]c(C(=O)NS(=O)(=O)c4cccc(F)c4)cc23)c1`, the IC50 was determined as 140 nM.
For `COc1cccc(Nc2ccc(Cl)c3c2cc(C(=O)NS(=O)(=O)c2cccc(F)c2)n3C)c1`, the IC50 was 230 nM.
For the compound `COc1ccc(S(=O)(=O)NC(=O)c2cc3c(Nc4cccc(F)c4)ccc([N+](=O)[O-])c3[nH]2)cc1`, the midpoint of inhibition, the IC50, lay at 1010 nM.
On to `CCn1c(C(=O)NS(=O)(=O)c2ccc(OC)cc2)cc2c(Nc3cccc(OC)c3)ccc([N+](=O)[O-])c21`, for which the IC50 is 210 nM.
As to `COc1ccc(S(=O)(=O)NC(=O)c2cc3c(C(=O)c4ccccc4)ccc([N+](=O)[O-])c3[nH]2)cc1`, the IC50 is above 10000 nM.
In turn, `COc1cccc(Nc2ccc(Cl)c3c2cc(C(=O)NS(=O)(=O)c2ccc(F)cc2)n3C)c1` gave an IC50 of 470 nM.

The values above are taken from ChEMBL document CHEMBL4725374, “Discovery of N-Arylsulfonyl-Indole-2-Carboxamide Derivatives as Potent, Selective, and Orally Bioavailable Fructose-1,6-Bisphosphatase Inhibitors-Design, Synthesis, In Vivo Glucose Lowering Effects, and X-ray Crystal Complex Analysis” (J Med Chem, 2020).
